Legend:
[1] = tested on: anti-GAA peptide antibody titers; assay: Effect of OPLS and PS-liposomes on GAA peptide immunogenicity; format: in vivo, mouse; details: 10 μg peptide, 4 weekly s.c.; OPLS 5 mg or PS/PC 1:10,000 protein:lipid
Method: Materials and Methods. GAA peptide Source: This GAA peptide was produced by American Peptide Company (Sunnyvale, Calif.). They produced for us a peptide […] containing amino acids 339-352 of the full length GAA sequence, YIFLGPEPKSVVQ (SEQ ID NO:1). OPLS Source: Sigma-Aldrich (St. Louis, Mo.) Peptide concentration dose: 10 μg/injection. Free GAA peptide (n=4), PS-GAA peptide (n=4), and OPLS-GAA peptide (n=5). Each mouse received 4 weekly subcutaneous (s.c.) injections near the base of the tail of 100 μl/injection of their treatment. Two weeks after the last injection, a retro-orbital blood sample was taken from each mouse. Samples were stored at −80° C. until analysis. These samples were then analyzed for anti-GAA peptide Ab titers. Anti-GAA antibody titers were measured as follows: ELISA plate (maxisorp, NUNC) was coated with 100 μl of 10 μg/ml of sterile rhGAA in sodium carbonate-bicarbonate buffer pH=9.6. The plate was incubated overnight at 4° C. The plate was washed six times with PBS containing 0.05% Tween 20 (PBS-T, 250 μl/well) using an automated plate washer. […] The reaction was stopped with 2 N sulfuric acid and read immediately at 450 nm using a micro-plate reader. The titer values are quantitated using a statistical endpoint method as described by Frey et al. Control plasma samples were run on each plate. […]

anti-KLH IgG titer = assay: 28-day repeat dose TDAR study, anti-KLH IgG; format: in vivo, CD-1 mice; details: 28 daily doses, any OPLS dose
Source text: FIG. 20. Anti-KLH IgG titer levels obtained from a short term, repeat dose (28 daily doses) TDAR study conducted in CD-1 mice.

GAA = target: T1, GAA (Homo sapiens, UniProt P10253); assay: Binding of OPLS to GAA by fluorescence spectroscopy; details: spectroscopic titration
T1 construct: Full length recombinant rhGAA was produced in Human Kidney Embryo Cells for our use by Creative Biomart; purchased Creative Biomart (Shirley, N.Y.); host or cells: Human Kidney Embryo Cells
Method: (§1) The binding of OPLS to several therapeutic proteins was evaluated using fluorescence spectroscopy (FIG. 2).

[2] = Plasma chemistry markers after 21 daily doses of OPLS; format: in vivo, rhesus macaques; details: 21 daily doses of 25 mg/kg, days 0, 8, 22
Method: FIG. 24. Effect of 21 daily doses of 25 mg/kg OPLS on plasma chemistry markers of rhesus macaques. Samples were drawn from the animals at baseline (day 0), at an intermediate time point during treatment (day 8) and 1 day after the termination of dosing (day 22).

FVIII = target: T2, FVIII (Homo sapiens, UniProt P00451); assay: Binding of OPLS to FVIII by fluorescence spectroscopy
T2 construct: Full length recombinant human FVIII (Baxter Biosciences, Carlsbad, Calif.) was obtained as a gift; purchased Baxter Biosciences (gift from the Western New York Hemophilia Foundation)
Method: as §1

[3] = tested on: anti-Humira antibody titers; assay: Effect of OPLS on immunogenicity of adalimumab; format: in vivo, mice; details: 5 mg OPLS with Humira s.c., 4 weekly injections, 2 weeks washout
Method: Methods: n=8 animals/group were immunized with 4 weekly s.c. injections of 10 μg of adalimumab in 100 μl of either sterile TRIS for the free group or in 5 mg OPLS in sterile TRIS for the OPLS-Adalimumab group. After a 2 week rest period, a blood sample from the saphenous vein was collected for titer analysis. Titer values were obtained by classical sandwitch ELISA. Briefly, Nunc-Maxisorb 96-well plates were coated overnight at 4° C. with 50 μl/well of 2.5 μg/ml Humira. Plates were then washed and blocked with 1% bovine serum albumin (blocking buffer). 50 μl/well of various dilutions of the sample were added to the plate and incubated at room temperature for 2 h. Plasma samples from animals exposes to a sham treatment (buffer only) served as controls. The plates were then washed and incubated with 50 μl of goat anti-mouse anti-body-HRP conjugate at a 1:50000 dilution in blocking buffer at room temperature for 1 h. Color was developed for 20 min with 100 μl of TMB solution. 100 μl of 2 N H2SO4 was used to stop the reaction. Optical density at […] was measured using a plate reader. Non-responders were given the value of the plate specific factor for uniformity.

IL-12p70 = assay: Cytokine profile of BMDCs in vitro, IL-12p70 ELISA; format: cell-based, HA mice; details: 1 μg/ml FVIII with 50 mM OPLS, 48 hours, n=4
Method: Generation of bone marrow derived dendritic cells (BMDC): Bone marrow was isolated from 6 to 8 week old naïve HA. Briefly, bone marrow was cultured in RPMI media supplemented with […] (low endotoxin), 2-mercaptoethanol, Pen/Strep and […] GMCSF. Media was changed on days 3, 6 and 8 of culture and DCs were used on day 9. BMDC are then harvested and used as needed. To verify the differentiation of bone marrow cells into DCs, CD11c surface expression was confirmed by flow cytometry using anti-CD11c-FITC antibody with appropriate isotope controls.
Effects of OPLS on cytokine profile of BMDCs in vitro: The effects of OPLS on cytokine secretion by dendritic cells were investigated. On day 9 BMDCs, generated as above, were treated with FVIII as an antigen in the presence of increasing dose of OPLS. Changes in production of pro-inflammatory cytokines TNF-α and IL12p70 as well as the regulatory cytokine TGF-β were monitored as a function of dose. BMDCs were exposed to 1 μg/ml FVIII with increasing dose of OPLS (0, 0.5, 1, 10, 25, 50 mM). 1 M stock of OPLS was prepared by adding the appropriate amount of OPLS directly to RPMI media, and pH was adjusted using sterile 3N and 1N NaOH. […] TGF-β, TNF-α and IL-12p70 concentrations were determined using standard ELISA (R&D System Inc. Minneapolis, Minn., USA or Invitrogen […], Calif.).

T2 sequence (P00451 20-2351): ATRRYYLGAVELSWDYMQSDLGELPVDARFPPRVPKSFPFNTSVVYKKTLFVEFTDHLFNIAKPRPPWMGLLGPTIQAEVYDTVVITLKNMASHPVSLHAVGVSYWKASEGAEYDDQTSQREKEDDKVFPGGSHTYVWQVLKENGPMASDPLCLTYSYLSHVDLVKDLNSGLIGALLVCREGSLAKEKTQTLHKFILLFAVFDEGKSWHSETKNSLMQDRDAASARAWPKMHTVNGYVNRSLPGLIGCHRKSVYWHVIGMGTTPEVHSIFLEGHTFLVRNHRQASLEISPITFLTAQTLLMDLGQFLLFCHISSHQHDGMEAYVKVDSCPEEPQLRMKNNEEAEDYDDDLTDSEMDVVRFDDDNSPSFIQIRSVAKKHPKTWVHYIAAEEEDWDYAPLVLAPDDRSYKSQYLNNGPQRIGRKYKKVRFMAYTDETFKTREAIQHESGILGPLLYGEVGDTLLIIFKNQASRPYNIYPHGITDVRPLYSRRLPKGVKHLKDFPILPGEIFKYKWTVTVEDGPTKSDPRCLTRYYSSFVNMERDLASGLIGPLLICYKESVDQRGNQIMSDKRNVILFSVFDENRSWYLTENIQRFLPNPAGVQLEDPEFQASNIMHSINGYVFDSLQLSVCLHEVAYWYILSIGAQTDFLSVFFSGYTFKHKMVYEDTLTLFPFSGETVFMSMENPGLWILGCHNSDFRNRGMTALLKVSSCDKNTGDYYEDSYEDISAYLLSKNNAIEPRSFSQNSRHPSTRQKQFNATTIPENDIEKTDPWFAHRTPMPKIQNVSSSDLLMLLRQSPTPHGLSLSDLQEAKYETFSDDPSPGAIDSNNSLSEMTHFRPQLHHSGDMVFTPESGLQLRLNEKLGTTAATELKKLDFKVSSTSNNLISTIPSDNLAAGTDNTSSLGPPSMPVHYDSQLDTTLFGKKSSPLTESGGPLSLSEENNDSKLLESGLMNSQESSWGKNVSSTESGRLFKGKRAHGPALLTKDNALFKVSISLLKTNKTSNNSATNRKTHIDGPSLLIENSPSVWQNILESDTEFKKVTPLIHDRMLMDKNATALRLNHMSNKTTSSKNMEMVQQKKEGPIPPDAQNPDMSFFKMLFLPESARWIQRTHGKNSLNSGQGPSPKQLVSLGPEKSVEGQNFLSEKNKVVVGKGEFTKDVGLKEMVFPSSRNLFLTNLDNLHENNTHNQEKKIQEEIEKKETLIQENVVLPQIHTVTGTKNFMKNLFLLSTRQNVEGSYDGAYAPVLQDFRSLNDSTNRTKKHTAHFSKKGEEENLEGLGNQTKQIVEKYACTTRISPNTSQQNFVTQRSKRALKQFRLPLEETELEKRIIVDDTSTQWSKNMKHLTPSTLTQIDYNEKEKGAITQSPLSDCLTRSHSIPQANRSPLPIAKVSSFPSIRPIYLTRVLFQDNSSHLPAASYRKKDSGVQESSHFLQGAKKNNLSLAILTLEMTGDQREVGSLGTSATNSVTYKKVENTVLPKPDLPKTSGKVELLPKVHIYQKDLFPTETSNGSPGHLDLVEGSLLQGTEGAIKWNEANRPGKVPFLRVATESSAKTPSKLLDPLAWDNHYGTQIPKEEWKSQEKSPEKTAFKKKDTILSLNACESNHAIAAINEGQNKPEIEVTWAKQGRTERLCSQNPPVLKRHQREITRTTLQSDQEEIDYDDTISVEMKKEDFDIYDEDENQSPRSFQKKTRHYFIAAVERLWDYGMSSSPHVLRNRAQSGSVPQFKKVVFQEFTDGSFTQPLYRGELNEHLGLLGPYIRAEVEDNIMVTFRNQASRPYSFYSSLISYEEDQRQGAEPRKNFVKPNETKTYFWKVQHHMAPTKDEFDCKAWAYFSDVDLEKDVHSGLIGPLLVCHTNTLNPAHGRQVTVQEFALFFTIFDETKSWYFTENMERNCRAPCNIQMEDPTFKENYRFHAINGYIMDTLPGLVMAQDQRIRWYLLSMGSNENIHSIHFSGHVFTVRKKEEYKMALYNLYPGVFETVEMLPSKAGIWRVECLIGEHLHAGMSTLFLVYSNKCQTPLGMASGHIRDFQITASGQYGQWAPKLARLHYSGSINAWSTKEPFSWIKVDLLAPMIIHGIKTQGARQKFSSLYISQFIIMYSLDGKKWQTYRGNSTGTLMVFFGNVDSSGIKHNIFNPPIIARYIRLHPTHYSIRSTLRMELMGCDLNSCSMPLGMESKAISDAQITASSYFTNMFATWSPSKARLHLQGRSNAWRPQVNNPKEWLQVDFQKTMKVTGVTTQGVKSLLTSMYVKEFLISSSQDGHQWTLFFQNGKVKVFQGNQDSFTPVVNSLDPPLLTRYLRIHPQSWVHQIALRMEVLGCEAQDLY
T2 sequence (P00451 20-1667 partner limits assumed): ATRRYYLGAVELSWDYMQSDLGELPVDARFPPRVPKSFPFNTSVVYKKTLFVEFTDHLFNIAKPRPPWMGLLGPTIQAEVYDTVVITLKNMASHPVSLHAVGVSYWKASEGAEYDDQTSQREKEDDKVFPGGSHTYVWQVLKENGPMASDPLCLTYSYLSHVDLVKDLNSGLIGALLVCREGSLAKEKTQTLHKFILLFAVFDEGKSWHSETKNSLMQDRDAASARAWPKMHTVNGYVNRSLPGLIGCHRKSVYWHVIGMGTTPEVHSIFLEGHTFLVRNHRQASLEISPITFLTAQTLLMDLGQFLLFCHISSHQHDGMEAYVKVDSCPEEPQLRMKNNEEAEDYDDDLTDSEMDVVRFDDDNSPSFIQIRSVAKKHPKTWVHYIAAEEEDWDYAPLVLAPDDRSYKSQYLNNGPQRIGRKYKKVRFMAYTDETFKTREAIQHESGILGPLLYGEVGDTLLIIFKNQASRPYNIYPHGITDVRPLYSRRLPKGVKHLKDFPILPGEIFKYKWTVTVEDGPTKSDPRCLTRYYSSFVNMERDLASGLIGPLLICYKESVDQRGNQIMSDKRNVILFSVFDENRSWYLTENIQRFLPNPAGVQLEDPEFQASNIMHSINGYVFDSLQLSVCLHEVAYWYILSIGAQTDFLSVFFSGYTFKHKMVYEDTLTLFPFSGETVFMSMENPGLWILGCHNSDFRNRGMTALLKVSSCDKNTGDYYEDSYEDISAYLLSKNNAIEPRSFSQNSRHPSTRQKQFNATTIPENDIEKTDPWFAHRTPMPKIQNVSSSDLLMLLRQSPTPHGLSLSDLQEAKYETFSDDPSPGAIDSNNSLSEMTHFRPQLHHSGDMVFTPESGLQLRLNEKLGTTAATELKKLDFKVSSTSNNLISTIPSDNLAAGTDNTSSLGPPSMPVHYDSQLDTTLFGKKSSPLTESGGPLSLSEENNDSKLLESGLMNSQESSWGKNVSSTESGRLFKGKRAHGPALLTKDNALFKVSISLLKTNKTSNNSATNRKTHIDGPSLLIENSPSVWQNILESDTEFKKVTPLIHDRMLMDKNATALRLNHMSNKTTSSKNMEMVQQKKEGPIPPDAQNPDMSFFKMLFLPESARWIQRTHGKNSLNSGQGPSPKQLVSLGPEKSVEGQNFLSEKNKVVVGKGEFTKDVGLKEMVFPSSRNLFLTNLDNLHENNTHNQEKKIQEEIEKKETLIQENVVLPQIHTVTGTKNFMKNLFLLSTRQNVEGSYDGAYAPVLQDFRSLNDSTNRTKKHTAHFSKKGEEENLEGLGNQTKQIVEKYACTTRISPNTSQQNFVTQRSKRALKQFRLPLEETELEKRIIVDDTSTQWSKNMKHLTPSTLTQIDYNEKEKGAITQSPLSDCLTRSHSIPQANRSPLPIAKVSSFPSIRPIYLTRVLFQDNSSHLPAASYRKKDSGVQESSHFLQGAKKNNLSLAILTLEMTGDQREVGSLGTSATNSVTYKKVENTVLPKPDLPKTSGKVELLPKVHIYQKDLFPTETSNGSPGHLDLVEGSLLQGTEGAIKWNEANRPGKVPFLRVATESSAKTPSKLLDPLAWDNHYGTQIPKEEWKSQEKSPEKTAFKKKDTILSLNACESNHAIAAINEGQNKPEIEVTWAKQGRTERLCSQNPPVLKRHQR

## N[C@@H](COP(=O)(O)O)C(=O)O [OPLS, O-Phospho-L-Serine]
[1]
  Anti-GAA peptide antibody titers vs GAA peptide alone: lower
anti-KLH IgG titer
  Anti-KLH IgG titer levels vs vehicle: No statistical significance
GAA
  Binding affinity of GAA for OPLS: lowest affinity
[2]
  Impact on renal and hepatic function (plasma chemistry markers): no impact
FVIII; fluorescence titration, FIG. 2, read-out: Dissociation constant (Kd) of OPLS binding to FVIII
  Kd: 8.4 µM
FVIII; spectroscopic titration
  Binding affinity of FVIII for OPLS: highest affinity
[3]
  Anti-Humira antibody titers vs Humira alone: lower
IL-12p70
  IL-12p70 production by BMDC: total shut down

From US20220016241A1, “COMPOSITIONS AND METHODS FOR REDUCING ANTIGEN-SPECIFIC IMMUNOGENICITY” (The Research Foundation for The State University of New York, priority 2013, published 2022)
